Source: ChEMBL document CHEMBL1201862, “PubChem BioAssay data set” (2004)
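These data come from cells grown in 96-well plates and exposed to compound for 48 hours at five concentrations. The concentration for 50% growth inhibition is given as GI50.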 Active and inactive are the calls of the source. Cut-off read from the data, not from the text of the source: active = GI50 up to about 1.1 µM and inactive = higher.

How the values were obtained:
Assay in all cases: NCI tumour cell line growth inhibition, 48 h
[1] = system: 786-0
[2] = system: COLO 205
[3] = system: HOP-62
[4] = system: HT-29
[5] = system: IGROV-1
[6] = system: M14
[7] = system: MCF7
[8] = system: NCI-H460
[9] = system: NCI/ADR-RES
[10] = system: OVCAR-3
[11] = system: RPMI-8226
[12] = system: SK-OV-3
[13] = system: SNB-19
[14] = system: TK-10
[15] = system: UACC-62
[16] = system: UO-31
[17] = system: CCRF-CEM
[18] = system: HL-60
[19] = system: Malme-3M
[20] = system: SR

Measured: GI50

O=c1cc(-c2ccncc2)[nH]c2cc3c(cc12)OCO3
inactive: [1] 64.6 µM | [2] > 100 µM | [3] > 100 µM | [4] > 100 µM | [5] > 100 µM | [6] > 100 µM | [7] > 100 µM | [8] > 100 µM | [9] > 100 µM | [10] > 100 µM | [11] > 100 µM | [12] > 100 µM | [13] > 100 µM | [14] > 100 µM | [15] > 100 µM | [16] > 100 µM

O=[N+]([O-])C1C2C=CC(C2)[C@H]1c1ccccc1Cl (some centres not stated)
inactive: [1] > 100 µM | [17] 87.5 µM | [2] > 100 µM | [18] 29.9 µM | [3] > 10 µM | [4] 99.8 µM | [5] > 31.6 µM | [6] > 100 µM | [19] 99.1 µM | [8] > 100 µM | [10] 22 µM | [11] > 69.8 µM | [12] > 31.6 µM | [13] > 100 µM | [20] 47.9 µM | [14] > 100 µM | [15] 27.5 µM | [16] > 54 µM

C=CCCC(=O)C(=[N+]=[N-])C(=O)CCC(=O)c1ccccc1
inactive: [1] > 10 µM | [3] > 10 µM | [4] > 10 µM | [5] > 10 µM | [6] > 10 µM | [7] > 10 µM | [19] > 10 µM | [8] > 10 µM | [10] > 10 µM | [11] > 10 µM | [12] > 10 µM | [13] > 10 µM | [20] > 10 µM | [14] > 10 µM | [15] > 10 µM | [16] > 10 µM

COC(=O)C1=CC2C(=O)OC1C1C(=O)NC(=O)C21 (configuration not stated)
inactive: [1] > 100 µM | [17] > 100 µM | [2] > 100 µM | [18] > 100 µM | [3] > 100 µM | [4] > 100 µM | [5] > 100 µM | [6] > 100 µM | [19] > 100 µM | [8] > 100 µM | [10] > 100 µM | [11] > 100 µM | [12] > 100 µM | [13] > 100 µM | [20] > 100 µM | [14] > 100 µM | [15] > 100 µM | [16] > 100 µM

Cn1c(=O)c2c3oc(=O)cc(O)c3c(=O)n3c4ccccc4n(c1=O)c23
inactive: [1] 33.3 µM | [17] 29.2 µM | [2] 27.9 µM | [18] 21.1 µM | [3] > 100 µM | [4] 39.7 µM | [5] 44.2 µM | [6] 43.3 µM | [19] 33.1 µM | [8] 37.2 µM | [10] 24.6 µM | [11] 24 µM | [12] > 100 µM | [13] > 100 µM | [20] 20.4 µM | [14] > 100 µM | [15] 35 µM | [16] 28.8 µM

O=C1C2=Cc3ccccc3OC2(O)Oc2cc(O)cc(O)c21 (configuration not stated)
inactive: [1] > 100 µM | [17] 57.4 µM | [2] > 100 µM | [3] > 100 µM | [4] > 100 µM | [5] > 100 µM | [6] > 100 µM | [7] > 100 µM | [19] > 100 µM | [8] 41.5 µM | [9] > 100 µM | [10] > 10 µM | [11] > 100 µM | [12] > 100 µM | [14] > 100 µM | [15] 71.8 µM

COc1c2cc([N+](=O)[O-])cc1CN(C(=O)C(F)(F)F)CCOCCN(C(=O)C(F)(F)F)C2
inactive: [1] > 100 µM | [17] > 100 µM | [2] > 100 µM | [18] > 100 µM | [3] > 100 µM | [4] > 100 µM | [5] > 100 µM | [6] > 100 µM | [7] > 100 µM | [19] > 100 µM | [8] > 100 µM | [10] > 100 µM | [12] > 100 µM | [13] > 100 µM | [14] > 100 µM | [15] > 100 µM | [16] > 100 µM

c1ccc(-c2sc(-c3ccccc3)c3c2C(c2ccccc2)c2c(-c4ccccc4)sc(-c4ccccc4)c2C3c2ccccc2)cc1 (configuration not stated)
inactive: [1] > 100 µM | [17] > 100 µM | [2] > 100 µM | [18] > 100 µM | [3] > 100 µM | [4] > 100 µM | [5] > 100 µM | [6] > 100 µM | [19] > 100 µM | [8] > 100 µM | [10] > 100 µM | [11] > 100 µM | [12] > 100 µM | [13] > 100 µM | [20] > 100 µM | [14] > 100 µM | [15] > 100 µM | [16] > 100 µM
